For 15 molecules, TGI and GI50 results are on record in PubChem BioAssay (NCI).

Values joined by “and” are separate entries in the source; they are usually repeats but may differ in a detail not shown here. Equal values may be shown once.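 In this assay, cells in 96-well plates receive the compound at five concentrations for 48 hours. Endpoints are linearly interpolated between the surrounding concentrations. GI50: concentration for 50% inhibition of growth. At the TGI there is no net growth.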 Bounds are passed on as bounds.

Among the test systems are SK-OV-3 ovarian; M14 melanoma; A498 renal; HT29 colon; MDA-MB-231 breast; CCRF-CEM leukemia; MOLT-4 leukemia; RPMI-8226 leukemia; IGROV1 ovarian; EKVX NSCLC.
What all share (test): inhibition of tumour cell growth, NCI panel, 48 h

As for `CC(C)=CCNc1ncnc2c1ncn2CCC(=O)O`, the TGI with SK-OV-3 ovarian, in the assay with M14 melanoma, in the assay on A498 renal, with HT29 colon, in the assay with MDA-MB-231 breast and in the assay with CCRF-CEM leukemia was over 100 µM throughout. The TGI with MOLT-4 leukemia, in the assay with RPMI-8226 leukemia and with IGROV1 ovarian was over 100 µM throughout.

`O=C(CCC(NC(=O)OCc1ccccc1)C(=O)OCc1ccccc1)Nc1cccc(OCc2ccccc2)c1` (configuration not stated): the TGI in the assay on SK-OV-3 ovarian was over 100 µM; in the assay with EKVX NSCLC, over 100 µM; with M14 melanoma it was 38.2 µM; in the assay on HT29 colon, 70.9 µM; in the assay with MDA-MB-231 breast it was 56.5 µM; in the assay with CCRF-CEM leukemia it was 99.4 µM. The TGI is over 100 µM with MOLT-4 leukemia and 71.1 µM in the assay on IGROV1 ovarian.

As to `O=C(NNC(=O)c1ccncc1)C(=O)Nc1cc(Cl)c(Cl)cc1Cl`, the TGI with SK-OV-3 ovarian, in the assay with EKVX NSCLC, in the assay with M14 melanoma, with A498 renal, with HT29 colon and with MDA-MB-231 breast was over 100 µM in each case. Moreover, the TGI in the assay with MOLT-4 leukemia, in the assay with RPMI-8226 leukemia and in the assay with IGROV1 ovarian was over 100 µM in each case.

In the case of `C/C(=N\Nc1nc2cc(F)ccc2s1)c1ccccn1`, the TGI in the assay on SK-OV-3 ovarian was 5.37 µM; in the assay with M14 melanoma, 4.07 µM; in the assay on A498 renal, over 100 µM; in the assay on HT29 colon, 3.33 µM; in the assay on MDA-MB-231 breast, over 45.1 µM; in the assay with CCRF-CEM leukemia, over 100 µM. Also, the TGI in the assay on MOLT-4 leukemia and in the assay on RPMI-8226 leukemia was over 100 µM throughout.

For the molecule `Cc1ccc(N=Nc2c(O)ccc3ccccc23)c(C)c1`, the TGI in the assay on SK-OV-3 ovarian, in the assay on M14 melanoma, in the assay on A498 renal, in the assay with HT29 colon, in the assay with MDA-MB-231 breast and in the assay on MOLT-4 leukemia was over 100 µM throughout. Also, the TGI with RPMI-8226 leukemia and in the assay with IGROV1 ovarian was over 100 µM in each case.

Consider `C#CC(O)/C=C/C(O)CCCC(O)CC#CC(O)C#CCCCCC(O)/C=C/CCCC(=O)CCCCCCCCCCCCCCCC(O)C(O)C#CC(=O)O` (configuration not stated), for which the TGI with SK-OV-3 ovarian, in the assay with EKVX NSCLC, in the assay with M14 melanoma, with HT29 colon, with MDA-MB-231 breast and in the assay with CCRF-CEM leukemia was over 25 µM each time. For the same molecule, the TGI in the assay on MOLT-4 leukemia, in the assay with RPMI-8226 leukemia and in the assay on IGROV1 ovarian was over 25 µM throughout.

As for `CCC1OC2(C)CC(C#N)(C#N)C1(C#N)C(=N)O2` (configuration not stated), the TGI in the assay with SK-OV-3 ovarian, with EKVX NSCLC, in the assay with M14 melanoma, in the assay with A498 renal, in the assay on MDA-MB-231 breast and with CCRF-CEM leukemia was over 100 µM each time. In addition, the TGI in the assay on MOLT-4 leukemia and in the assay with IGROV1 ovarian was over 100 µM in each case.

On to `CC(C)(C)N=C1C(=O)C2(C)CCC1C2(C)C` (configuration not stated), for which the TGI with SK-OV-3 ovarian was over 100 µM; in the assay on EKVX NSCLC, over 100 µM; with M14 melanoma it was over 100 µM; in the assay on A498 renal, 41.2 µM; in the assay on HT29 colon, over 100 µM; in the assay with MDA-MB-231 breast, over 100 µM. Besides, the TGI in the assay with RPMI-8226 leukemia and with IGROV1 ovarian was over 100 µM each time.

`CC(C)=CC(=O)OC1C2C(C)=CC(=O)C(O)C2(C)C2C3(O)OCC24C(CC(=O)OC14)C(C)C3O` (configuration not stated): the GI50 in the assay on SK-OV-3 ovarian is 0.549 µM; in the assay on A498 renal, 0.142 µM; in the assay with HT29 colon, 0.0302 µM; in the assay with CCRF-CEM leukemia, 0.02 µM; with MOLT-4 leukemia, 0.02 µM; in the assay on RPMI-8226 leukemia it was 0.02 µM. The GI50 with IGROV1 ovarian is 0.02 µM. The TGI with SK-OV-3 ovarian was 0.709 µM and 3.74 µM; in the assay with M14 melanoma, 0.00826 µM; with A498 renal it was 0.288 µM and 0.511 µM; in the assay on HT29 colon, 0.0449 µM and 0.0146 µM and 0.137 µM; in the assay with MDA-MB-231 breast, 0.0596 µM and 0.0264 µM; with CCRF-CEM leukemia it was 0.109 µM and 0.177 µM and 0.253 µM. Also, in the assay on RPMI-8226 leukemia, the TGI is 0.028 µM and 0.0291 µM.

As to `CC1(C)Cc2ccccc2C(C)(Cl)C(=O)N1` (configuration not stated), the TGI with EKVX NSCLC, with M14 melanoma, in the assay with A498 renal, with HT29 colon, with MDA-MB-231 breast and with CCRF-CEM leukemia was over 10 µM throughout. Moreover, the TGI in the assay on MOLT-4 leukemia, with RPMI-8226 leukemia and with IGROV1 ovarian was over 10 µM throughout.

Regarding `Oc1c(NCn2nc(CCCCCCCCc3nn(CNc4ccc5ccccc5c4O)c(=S)o3)oc2=S)ccc2ccccc12`, the TGI in the assay on SK-OV-3 ovarian, in the assay on EKVX NSCLC, in the assay on M14 melanoma, in the assay with A498 renal, with HT29 colon and in the assay on MDA-MB-231 breast was over 100 µM each time. For the same molecule, the TGI with MOLT-4 leukemia, in the assay on RPMI-8226 leukemia and with IGROV1 ovarian was over 100 µM throughout.

As for `CC(=O)OC1C2CCC3CC2C2(SCCS2)C31` (configuration not stated), the TGI in the assay with SK-OV-3 ovarian, in the assay with EKVX NSCLC, in the assay on M14 melanoma, in the assay on A498 renal, in the assay with HT29 colon and in the assay with MDA-MB-231 breast was over 100 µM throughout. In addition, the TGI in the assay with MOLT-4 leukemia, with RPMI-8226 leukemia and with IGROV1 ovarian was over 100 µM throughout.

On to `COc1c(NC(C)=O)c2ccccc2c2ccccc12`, for which the TGI in the assay on EKVX NSCLC, with M14 melanoma, with A498 renal, in the assay with HT29 colon, in the assay on MDA-MB-231 breast and with CCRF-CEM leukemia was over 100 µM each time. Moreover, the TGI with MOLT-4 leukemia and in the assay on IGROV1 ovarian was over 100 µM in each case.

Take `C=CCCCN(C(=O)c1ccccc1)c1ccc(C(=O)OC)o1`: the TGI in the assay with SK-OV-3 ovarian, in the assay on EKVX NSCLC, in the assay with M14 melanoma, in the assay on A498 renal, in the assay on HT29 colon and in the assay on MDA-MB-231 breast was over 100 µM throughout. In addition, the TGI in the assay on MOLT-4 leukemia and in the assay on IGROV1 ovarian was over 100 µM each time.

As to `COc1ccc(/C=C/C(=O)c2cc(CN(C)C)c(O)c(CN(C)C)c2)cc1`, the TGI in the assay on EKVX NSCLC is over 100 µM; in the assay on A498 renal, 60.3 µM; with HT29 colon, over 100 µM; with MDA-MB-231 breast, 69.6 µM; in the assay on CCRF-CEM leukemia, over 100 µM; in the assay with MOLT-4 leukemia it was over 100 µM. Besides, the TGI in the assay on RPMI-8226 leukemia and with IGROV1 ovarian was over 100 µM each time.
